Target: T1, human CFTR (Homo sapiens, UniProt P13569)
T1 construct: expressed in transfected cells
Assay: Apical membrane Cl− current in CFTR-expressing FRT cells
Assay type: cell-based
Settings: for inhibition of CFTR after crofelemer pre-treatment: 50 μM crofelemer added first; for IC50 in absence versus presence of crofelemer: 50 μM crofelemer pre-added
Experimental: CFTR Cl^− current was measured in CFTR-expressing FRT cells in which the basolateral membrane was permeabilized by amphotericin B and a transepithelial Cl^− gradient was applied. Under these conditions, the measured current provides a direct quantitative measure of CFTR Cl^− conductance.
Measurements were done to investigate whether the Crofelemer inhibition potency depended on the CFTR activation mechanism. […] The reversibility of crofelemer inhibition of CFTR was investigated, since washout during secretory diarrhea is a concern in the use of a non-absorbable antisecretory agent. […] Following extensive washing, residual CFTR inhibition was determined from the current after re-stimulation by CPT-cAMP.
Comparisons of CFTR inhibition in the absence and presence of pre-added crofelemer tested the possibility that the site of action of crofelemer on CFTR might overlap with that of the small-molecule thiazolidinone and glycine hydrazide CFTR inhibitors.
FRT cells expressing human TMEM16A (cDNA provided by Dr. Luis Galietta, Gaslini Institute, Genoa, Italy) were generated similarly. FRT cells were cultured in F-12 Modified Coon's Medium (Sigma) supplemented with 10% fetal bovine serum (Hyclone), 2 mM glutamine, 100 units/ml penicillin, 100 μg/ml streptomycin, 350 μg/ml hygromycin and 500 μg/ml geneticin. […] T84 cells were cultured in DMEM/Ham's F-12 (1:1) medium containing 10% FBS, 100 units/ml penicillin and 100 μg/ml streptomycin.
FRT cells (stably expressing CFTR or TMEM16A) were cultured on Snapwell filters until confluence (transepithelial resistance >500 ohm.cm). Short-circuit current was measured in Ussing chambers (Vertical diffusion chamber; Costar) with Ringer's solution bathing the basolateral surface and half-Ringer's bathing the apical surface. Ringer's solution contained: 130 mM NaCl, 2.7 mM KCl, 1.5 mM KH2PO4, 1 mM CaCl2, 0.5 mM MgCl2, 10 mM Na-HEPES, 10 mM glucose, pH 7.3. Half-Ringer's solution was the same, except that 65 mM NaCl was replaced with Na gluconate, and CaCl2 was increased to 2 mM. […] Chambers were bubbled continuously with air. For T84 cells and bronchial epithelial cells, cells were bathed in symmetrical HCO3—buffered solution containing (in mM): 120 NaCl, 5 KCl, 1 MgCl2, 1 CaCl2, 10 D-glucose, 5 HEPES, and 25 NaHCO3 (pH 7.4), and aerated with 5% CO2 at 37° C. For the measurement of apical K+ conductance in T84 cells, NaHCO3 and NaCl were replaced with Na gluconate, and Na gluconate in basolateral solution was replaced with K gluconate and bubbled with air. The basolateral membrane was permeabilized with 20 μM amphotericin B. Short-circuit current was measured using a DVC-1000 voltage-clamp apparatus (World Precision Instruments).

T1 sequence (P13569 whole entry): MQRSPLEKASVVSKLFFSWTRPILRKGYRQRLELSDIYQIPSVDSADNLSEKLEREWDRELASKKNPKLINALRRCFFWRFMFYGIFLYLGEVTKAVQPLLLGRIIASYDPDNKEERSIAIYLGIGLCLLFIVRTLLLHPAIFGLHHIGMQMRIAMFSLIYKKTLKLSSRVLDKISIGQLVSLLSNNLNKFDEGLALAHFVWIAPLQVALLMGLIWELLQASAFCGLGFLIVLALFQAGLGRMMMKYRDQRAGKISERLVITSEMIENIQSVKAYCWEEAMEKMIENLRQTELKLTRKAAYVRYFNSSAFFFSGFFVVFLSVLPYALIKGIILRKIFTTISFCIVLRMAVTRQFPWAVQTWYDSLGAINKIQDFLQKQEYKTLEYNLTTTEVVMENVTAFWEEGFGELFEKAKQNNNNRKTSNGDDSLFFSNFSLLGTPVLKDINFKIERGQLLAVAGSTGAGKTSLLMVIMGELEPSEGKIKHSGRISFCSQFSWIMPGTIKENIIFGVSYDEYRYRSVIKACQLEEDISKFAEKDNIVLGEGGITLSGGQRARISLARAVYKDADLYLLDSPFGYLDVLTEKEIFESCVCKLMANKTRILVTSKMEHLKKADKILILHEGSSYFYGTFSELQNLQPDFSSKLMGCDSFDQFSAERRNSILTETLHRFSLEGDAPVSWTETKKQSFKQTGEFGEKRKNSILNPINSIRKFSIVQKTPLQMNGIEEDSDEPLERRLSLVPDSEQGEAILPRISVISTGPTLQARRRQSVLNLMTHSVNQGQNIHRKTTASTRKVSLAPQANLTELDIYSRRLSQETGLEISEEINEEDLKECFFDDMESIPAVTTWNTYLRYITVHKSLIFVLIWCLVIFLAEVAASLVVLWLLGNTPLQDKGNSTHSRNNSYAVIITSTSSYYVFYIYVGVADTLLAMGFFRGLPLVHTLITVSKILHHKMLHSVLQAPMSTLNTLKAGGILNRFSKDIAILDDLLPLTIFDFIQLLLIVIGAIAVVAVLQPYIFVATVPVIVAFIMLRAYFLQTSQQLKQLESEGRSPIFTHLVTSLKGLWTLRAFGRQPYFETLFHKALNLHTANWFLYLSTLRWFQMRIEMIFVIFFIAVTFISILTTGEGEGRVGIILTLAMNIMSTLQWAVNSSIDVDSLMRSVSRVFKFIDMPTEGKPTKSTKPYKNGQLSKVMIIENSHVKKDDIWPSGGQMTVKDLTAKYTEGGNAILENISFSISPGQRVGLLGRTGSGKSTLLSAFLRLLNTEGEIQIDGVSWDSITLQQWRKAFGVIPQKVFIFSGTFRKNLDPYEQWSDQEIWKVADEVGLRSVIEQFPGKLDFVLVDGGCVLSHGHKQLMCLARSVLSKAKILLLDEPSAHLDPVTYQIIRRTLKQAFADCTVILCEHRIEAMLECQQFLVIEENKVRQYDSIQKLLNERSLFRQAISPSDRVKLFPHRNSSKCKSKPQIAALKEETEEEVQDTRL

| Compound | inhibition of CFTR after crofelemer pre-treatment [%] | IC50 in absence versus presence of crofelemer | IC50 (CFTR activated by CPT-cAMP, basolateral membrane permeabilized, Cl− gradient, inhibitor in apical solution, read-out: apparent IC50 for inhibition of CFTR Cl− current) [µM] |
| --- | --- | --- | --- |
| O=C(CNc1ccc2ccccc2c1)N/N=C/c1cc(Br)c(O)c(Br)c1O [GlyH-101] | ~100 | similar | ~8 |
| CFTRinh-172 | ~100 | similar | – |

From patent US20120202876A1, “METHODS OF TREATING DISEASES WITH PROANTHOCYANIDIN OLIGOMERS SUCH AS CROFELEMER” (NAPO PHARMACEUTICALS, INC., priority 2009, published 2012)
